Experiments:
IL-6 [1] = assay: IL-6 cytokine secretion in primary human hepatic stellate cells stimulated with TNFα; format: cell-based; conditions: for Fold Change IL-6 Secretion Normalized Per Cell: Valine 234 μM (plasma level, reference)
MCP1/CCL2 = MCP1/CCL2 secretion by ELISA in primary human hepatocytes with FFA + TNFα; format: cell-based
Procollagen Iα1 = Procollagen Iα1 secretion (ELISA) in primary human hepatic stellate cells stimulated with TGFβ1; format: cell-based; conditions: for Procollagen lα1 Secretion (Fold Change of 1X), Mean: first donor; for Procollagen lα1 Secretion (Fold Change of 1X), Mean / Procollagen Iα1 Secretion, Mean: single amino acid
Col1a1 = Col1a1 gene expression (RT-qPCR) in primary human hepatic stellate cells stimulated with TGFβ1; format: cell-based; conditions: for Col1a1 Fold Expression Relative to Control, Mean: single amino acid
MCP-1 = MCP-1 chemokine secretion in primary human hepatic stellate cells stimulated with TNFα; format: cell-based
TNF-α = assay: LPS-induced TNF-α secretion in primary human monocyte-derived macrophages; conditions: 0.15 ng/mL LPS
IL-6 [2] = assay: LPS-induced IL-6 secretion in primary human monocyte-derived macrophages; conditions: LPS, baseline subtracted values
[3] = hepatic stellate cells, two donors
[4] = hepatic stellate cells, three donors
[5] = Donor 2, Conc. 234 μM (baseline)

With `CC(C)[C@H](N)C(=O)O` [Valine, L-Valine] the “Fold Change IL-6 Secretion Normalized Per Cell” value (IL-6 [1]; donor 1) was 1.0000 fold change, the “Fold Change IL-6 Secretion Normalized Per Cell” value (IL-6 [1]; donor 2) was 1.0000 fold change and the “IL-6 secretion (summary in words)” value (IL-6 [1]; [3]) was “no significant effect on IL-6 secretion”. The “MCP1 expression relative to Control, Mean” value (MCP1/CCL2; Donor 1, Conc. 234 μM) was −2.4E−15, the “MCP1 expression relative to Control, Mean” value (MCP1/CCL2; Donor 1, Conc. 4684 μM) was 23.6867 and the “MCP1 expression relative to Control, Mean” value (MCP1/CCL2; Donor 1, Conc. 11710 μM) was 77.73. The “MCP1 expression relative to Control, Mean” value (MCP1/CCL2; Donor 1, Conc. 23420 μM) was 14.17, the “MCP1 expression relative to Control, Mean” value (MCP1/CCL2; Donor 2, Conc. 234 μM) was −1.4E−14 and the “MCP1 expression relative to Control, Mean” value (MCP1/CCL2; Donor 2, Conc. 4684 μM) was 10.79. For the same molecule, the “MCP1 expression relative to Control, Mean” value (MCP1/CCL2; Donor 2, Conc. 11710 μM) was 38.25, the “MCP1 expression relative to Control, Mean” value (MCP1/CCL2; Donor 2, Conc. 23420 μM) was −30.7921 and the “MCP1/CCL2 secretion (summary in words)” value (MCP1/CCL2; primary human hepatocytes, two healthy donors) was “did not have an effect on MCP1/CCL2 secretion”. The “Procollagen lα1 Secretion (Fold Change of 1X), Mean” value (Procollagen Iα1; 4684 μM) was 1.1203 fold, the “Procollagen lα1 Secretion (Fold Change of 1X), Mean” value (Procollagen Iα1; 11710 μM) was 1.2069 fold and the “Procollagen lα1 Secretion (Fold Change of 1X), Mean” value (Procollagen Iα1; 23420 μM) was 1.2139 fold. The “procollagen Iα1 secretion (summary in words)” value (Procollagen Iα1; [4]) was “significantly increased procollagen Iα1 secretion in only one of two donors”, the “Procollagen Iα1 Secretion, Mean” value (Procollagen Iα1; second donor, Conc. 234 μM (baseline)) was 1.0000 Fold Change of 1× and the “Procollagen Iα1 Secretion, Mean” value (Procollagen Iα1; second donor, Conc. 4684 μM) was 1.2865 Fold Change of 1×. For the same molecule, the “Procollagen Iα1 Secretion, Mean” value (Procollagen Iα1; second donor, Conc. 11710 μM) was 1.2877 Fold Change of 1×, the “Procollagen Iα1 Secretion, Mean” value (Procollagen Iα1; second donor, Conc. 23420 μM) was 1.3068 Fold Change of 1× and the “Procollagen Iα1 Secretion, Mean” value (Procollagen Iα1; third donor, Conc. 234 μM (baseline)) was 1.0000 Fold Change of 1×. For the same molecule, the “Procollagen Iα1 Secretion, Mean” value (Procollagen Iα1; third donor, Conc. 4684 μM) was 1.0428 Fold Change of 1×, the “Procollagen Iα1 Secretion, Mean” value (Procollagen Iα1; third donor, Conc. 11710 μM) was 1.0498 Fold Change of 1× and the “Procollagen Iα1 Secretion, Mean” value (Procollagen Iα1; third donor, Conc. 23420 μM) was 1.1139 Fold Change of 1×. For the same molecule, the “Col1a1 Fold Expression Relative to Control, Mean” value (Col1a1; first donor, 234 μM (baseline)) was 1.00 fold, the “Col1a1 Fold Expression Relative to Control, Mean” value (Col1a1; first donor, 23420 μM) was 1.00 fold and the “Col1a1 gene expression (summary in words)” value (Col1a1; [4]) was “did not significantly change Col1a1 gene expression in any donor”. The “Col1a1 Fold Expression Relative to Control, Mean” value (Col1a1; second donor (Table 27), 234 μM (baseline)) was 1.00 fold, the “Col1a1 Fold Expression Relative to Control, Mean” value (Col1a1; second donor (Table 27), 4684 μM) was 1.05 fold and the “Col1a1 Fold Expression Relative to Control, Mean” value (Col1a1; second donor (Table 27), 11710 μM) was 0.98 fold. For the same molecule, the “Col1a1 Fold Expression Relative to Control, Mean” value (Col1a1; second donor (Table 27), 23420 μM) was 1.05 fold, the “Col1a1 Fold Expression Relative to Control, Mean” value (Col1a1; second donor (Table 29), 4684 μM) was 1.22 fold and the “Col1a1 Fold Expression Relative to Control, Mean” value (Col1a1; second donor (Table 29), 23420 μM) was 1.13 fold. The “Fold Change MCP1 Secretion Normalized Per Cell, Mean” value (MCP-1; donor 3, Conc. 234 μM) was 1.0000 Fold Change, the “Fold Change MCP1 Secretion Normalized Per Cell” value (MCP-1; donor 4, Valine 234 μM (plasma level, reference)) was 1.0000 fold change and the “MCP-1 secretion (summary in words)” value (MCP-1; [3]) was “no significant impact on MCP-1 secretion”. For the same molecule, the “TNF-α Measurements Mean (baseline subtracted)” value (from here on “TNF-α Measurements Mean”) (TNF-α; Donor 1, Conc. 4684 μM) was −40.37, the “TNF-α Measurements Mean” value (TNF-α; Donor 1, Conc. 11710 μM) was −41.77 and the “TNF-α Measurements Mean” value (TNF-α; Donor 1, Conc. 23420 μM) was −14.98. The “TNF-α Measurements Mean” value (TNF-α; [5]) was −4.7E−15, the “TNF-α Measurements Mean” value (TNF-α; Donor 2, Conc. 4684 μM) was −0.00221 and the “TNF-α Measurements Mean” value (TNF-α; Donor 2, Conc. 11710 μM) was −0.835. The “TNF-α Measurements Mean” value (TNF-α; Donor 2, Conc. 23420 μM) was −1.251, the “TNF-α Measurements Mean” value (TNF-α; Donor 3, Conc. 234 μM (baseline)) was −2.4E−15 and the “TNF-α Measurements Mean” value (TNF-α; Donor 3, Conc. 4684 μM) was 0.126. For the same molecule, the “TNF-α Measurements Mean” value (TNF-α; Donor 3, Conc. 11710 μM) was −2.599, the “TNF-α Measurements Mean” value (TNF-α; Donor 3, Conc. 23420 μM) was 3.688 and the “IL-6 Measurements, Mean” value (IL-6 [2]; Donor 1, Conc. 234 μM (baseline)) was 0. The “IL-6 Measurements, Mean” value (IL-6 [2]; [5]) was −4.7E−15, the “IL-6 Measurements, Mean” value (IL-6 [2]; Donor 2, Conc. 4684 μM) was −4.528 and the “IL-6 Measurements, Mean” value (IL-6 [2]; Donor 2, Conc. 11710 μM) was −1.196. The “IL-6 Measurements, Mean” value (IL-6 [2]; Donor 2, Conc. 23420 μM) was 4.396.

Source: patent US11737999B2, “Amino acid compositions and methods for the treatment of post-acute sequelae of COVID-19” (AXCELLA HEALTH INC., priority 2021, dated 2023)
